# Test results taken from PubChem BioAssay AID248 (DTP/NCI, 2004).
# Several values for one entry are separate records, joined by “and”; a condition that tells them apart may be missing. Equal entries are not always repeated. Inconclusive results and toxic doses are left out.
# System: L1210 leukemia ip in BDF1 mice, survival T/C
# Experiment: NCI In Vivo Anticancer Drug Screen. Data for tumor model L1210 Leukemia (intraperitoneal) in B6D2F1 (BDF1) mice
# Conditions: endpoint: mean survival time, higher = longer survival
# Summary of the method: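 Survival endpoint. Drug-treated group vs vehicle group, expressed as T divided by C. Tumor passaged by transplantation.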
# [1] = dose: 25.0 mg/kg/injection, schedule: Q04DX003 (ip), vehicle: Klucel (hydroxypropylcellulose) (HPC)
# [2] = dose: 50.0 mg/kg/injection, schedule: Q04DX003 (ip), vehicle: Klucel (hydroxypropylcellulose) (HPC)
# [3] = dose: 100.0 mg/kg/injection, schedule: Q01DX001 (ip), vehicle: carboxymethylcellulose (CMC)
# [4] = dose: 200.0 mg/kg/injection, schedule: Q01DX001 (ip), vehicle: carboxymethylcellulose (CMC)
# [5] = dose: 100.0 mg/kg/injection, schedule: Q04DX003 (ip), vehicle: Klucel (hydroxypropylcellulose) (HPC)
# [6] = dose: 200.0 mg/kg/injection, schedule: Q04DX003 (ip), vehicle: Klucel (hydroxypropylcellulose) (HPC)
# [7] = dose: 400.0 mg/kg/injection, schedule: Q04DX003 (ip), vehicle: Klucel (hydroxypropylcellulose) (HPC)
# [8] = dose: 50.0 mg/kg/injection, schedule: Q01DX001 (ip), vehicle: saline
# [9] = dose: 100.0 mg/kg/injection, schedule: Q01DX001 (ip), vehicle: saline
# [10] = dose: 200.0 mg/kg/injection, schedule: Q01DX001 (ip), vehicle: saline
# [11] = dose: 400.0 mg/kg/injection, schedule: Q01DX001 (ip), vehicle: saline
# [12] = dose: 6.25 mg/kg/injection, schedule: Q01DX009 (ip), vehicle: saline with Tween-80
# [13] = dose: 12.5 mg/kg/injection, schedule: Q01DX009 (ip), vehicle: saline with Tween-80
# [14] = dose: 100.0 mg/kg/injection, schedule: Q01DX009 (ip), vehicle: Klucel (hydroxypropylcellulose) (HPC)
# [15] = dose: 200.0 mg/kg/injection, schedule: Q01DX009 (ip), vehicle: Klucel (hydroxypropylcellulose) (HPC)
# [16] = dose: 400.0 mg/kg/injection, schedule: Q01DX009 (ip), vehicle: Klucel (hydroxypropylcellulose) (HPC)
smiles,measurement,setting,value
CC(=O)[O][Hg][CH]1CCC2OC1CC[CH]2[Hg][O]C(C)=O (centres undefined),T/C,"dose: 12.5 mg/kg/injection, schedule: Q01DX009 (ip), vehicle: Klucel (hydroxypropylcellulose) (HPC)",97 % of control
same,T/C,"dose: 25.0 mg/kg/injection, schedule: Q01DX009 (ip), vehicle: Klucel (hydroxypropylcellulose) (HPC)",94 % of control
same,T/C,[1],91 % of control
same,T/C,"dose: 50.0 mg/kg/injection, schedule: Q01DX009 (ip), vehicle: Klucel (hydroxypropylcellulose) (HPC)",96 % of control
same,T/C,[2],98 % of control
CNC(=O)Oc1ccc(C2CCCCC2)cc1,T/C,[3],99 % of control
same,T/C,"dose: 100.0 mg/kg/injection, schedule: Q01DX009 (ip), vehicle: carboxymethylcellulose (CMC)",93 % of control and 103 % of control
same,T/C,"dose: 100.0 mg/kg/injection, schedule: Q04DX002 (ip), vehicle: Klucel (hydroxypropylcellulose) (HPC)",97 % of control
same,T/C,"dose: 100.0 mg/kg/injection, schedule: Q04DX002 (ip), vehicle: carboxymethylcellulose (CMC)",95 % of control and 101 % of control
same,T/C,"dose: 100.0 mg/kg/injection, schedule: Q04DX003 (ip), vehicle: carboxymethylcellulose (CMC)",94 % of control
same,T/C,[4],90 % of control
same,T/C,"dose: 200.0 mg/kg/injection, schedule: Q01DX009 (ip), vehicle: carboxymethylcellulose (CMC)",93 % of control and 95 % of control
same,T/C,"dose: 200.0 mg/kg/injection, schedule: Q04DX002 (ip), vehicle: Klucel (hydroxypropylcellulose) (HPC)",97 % of control
same,T/C,"dose: 200.0 mg/kg/injection, schedule: Q04DX002 (ip), vehicle: carboxymethylcellulose (CMC)",101 % of control and 108 % of control
same,T/C,"dose: 200.0 mg/kg/injection, schedule: Q04DX003 (ip), vehicle: carboxymethylcellulose (CMC)",94 % of control
same,T/C,"dose: 400.0 mg/kg/injection, schedule: Q01DX001 (ip), vehicle: carboxymethylcellulose (CMC)",92 % of control
same,T/C,"dose: 400.0 mg/kg/injection, schedule: Q01DX009 (ip), vehicle: carboxymethylcellulose (CMC)",98 % of control and 100 % of control
same,T/C,"dose: 400.0 mg/kg/injection, schedule: Q04DX002 (ip), vehicle: Klucel (hydroxypropylcellulose) (HPC)",100 % of control
same,T/C,"dose: 400.0 mg/kg/injection, schedule: Q04DX002 (ip), vehicle: carboxymethylcellulose (CMC)",95 % of control and 101 % of control
same,T/C,"dose: 400.0 mg/kg/injection, schedule: Q04DX003 (ip), vehicle: carboxymethylcellulose (CMC)",100 % of control
COc1ccc(NC(=O)Oc2ccc(-c3ccccc3)cc2Br)cc1,T/C,[5],96 % of control
same,T/C,[6],96 % of control
same,T/C,[7],92 % of control
O=C(CCN1CCC(c2ccccc2)CC1)c1ccc(F)cc1,T/C,[3],106 % of control
same,T/C,[4],93 % of control
O=C(O)C(=O)Cc1c(Cl)cccc1[N+](=O)[O-],T/C,[8],104 % of control
same,T/C,[9],101 % of control
same,T/C,[10],106 % of control
same,T/C,[11],104 % of control
CC1CCC(C)C1NC1=NCCO1 (centres undefined),T/C,[12],90 % of control
same,T/C,[13],95 % of control
same,T/C,"dose: 25.0 mg/kg/injection, schedule: Q01DX009 (ip), vehicle: saline with Tween-80",90 % of control
same,T/C,"dose: 25.0 mg/kg/injection, schedule: Q04DX003 (ip), vehicle: saline with Tween-80",93 % of control
same,T/C,"dose: 50.0 mg/kg/injection, schedule: Q04DX003 (ip), vehicle: saline with Tween-80",93 % of control
same,T/C,"dose: 100.0 mg/kg/injection, schedule: Q04DX003 (ip), vehicle: saline with Tween-80",87 % of control
O=C(O)CNC(=O)CNC(=O)C1NC(C(F)(F)F)(C(F)(F)F)OC1(C(F)(F)F)C(F)(F)F (centres undefined),T/C,"dose: 100.0 mg/kg/injection, schedule: Q01DX001 (ip), vehicle: Klucel (hydroxypropylcellulose) (HPC)",97 % of control
same,T/C,"dose: 200.0 mg/kg/injection, schedule: Q01DX001 (ip), vehicle: Klucel (hydroxypropylcellulose) (HPC)",101 % of control
same,T/C,"dose: 400.0 mg/kg/injection, schedule: Q01DX001 (ip), vehicle: Klucel (hydroxypropylcellulose) (HPC)",92 % of control
CCCCC1=C(OCC)C(CCCC)C1=O (centres undefined),T/C,"dose: 10.0 mg/kg/injection, schedule: Q01DX009 (ip), vehicle: Klucel (hydroxypropylcellulose) (HPC)",94 % of control
same,T/C,"dose: 20.0 mg/kg/injection, schedule: Q01DX009 (ip), vehicle: Klucel (hydroxypropylcellulose) (HPC)",92 % of control
same,T/C,"dose: 40.0 mg/kg/injection, schedule: Q01DX009 (ip), vehicle: Klucel (hydroxypropylcellulose) (HPC)",94 % of control
same,T/C,[14],101 % of control
same,T/C,[5],96 % of control
same,T/C,[6],100 % of control
O=C1/C(=C\c2ccccn2)c2ccccc2N1Cl,T/C,"dose: 100.0 mg/kg/injection, schedule: Q01DX001 (ip), vehicle: other",94 % of control
same,T/C,"dose: 200.0 mg/kg/injection, schedule: Q01DX001 (ip), vehicle: other",92 % of control
same,T/C,"dose: 400.0 mg/kg/injection, schedule: Q01DX001 (ip), vehicle: other",94 % of control
NC(=S)N/N=C/c1ccc(F)cn1,T/C,"dose: 1.56 mg/kg/injection, schedule: Q01DX009 (ip), vehicle: saline with Tween-80",99 % of control
same,T/C,"dose: 3.13 mg/kg/injection, schedule: Q01DX009 (ip), vehicle: saline with Tween-80",106 % of control and 115 % of control
same,T/C,"dose: 5.54 mg/kg/injection, schedule: Q01DX009 (ip), vehicle: saline with Tween-80",108 % of control
same,T/C,[12],119 % of control
same,T/C,"dose: 6.25 mg/kg/injection, schedule: Q04DX002 (ip), vehicle: saline with Tween-80",104 % of control
same,T/C,"dose: 8.32 mg/kg/injection, schedule: Q01DX009 (ip), vehicle: saline with Tween-80",114 % of control
same,T/C,[13],119 % of control and 124 % of control
same,T/C,"dose: 12.5 mg/kg/injection, schedule: Q04DX002 (ip), vehicle: saline with Tween-80",112 % of control
same,T/C,"dose: 18.8 mg/kg/injection, schedule: Q01DX009 (ip), vehicle: saline with Tween-80",98 % of control
same,T/C,"dose: 22.0 mg/kg/injection, schedule: Q01DX001 (ip), vehicle: saline with Tween-80",105 % of control
same,T/C,"dose: 25.0 mg/kg/injection, schedule: Q04DX002 (ip), vehicle: saline with Tween-80",97 % of control
same,T/C,"dose: 33.0 mg/kg/injection, schedule: Q01DX001 (ip), vehicle: saline with Tween-80",107 % of control
CCc1c(CNc2ccc(C(=O)NC(CC(=O)O)C(=O)O)cc2)ccc2nc(N)nc(N)c12 (centres undefined),T/C,"dose: 0.06 mg/kg/injection, schedule: Q01DX009 (ip), vehicle: saline",112 % of control
same,T/C,"dose: 0.25 mg/kg/injection, schedule: Q01DX009 (ip), vehicle: saline",150 % of control and 184 % of control
same,T/C,"dose: 0.5 mg/kg/injection, schedule: Q01DX009 (ip), vehicle: saline",150 % of control
same,T/C,"dose: 0.5 mg/kg/injection, schedule: Q04DX003 (ip), vehicle: saline",112 % of control
same,T/C,"dose: 1.0 mg/kg/injection, schedule: Q01DX009 (ip), vehicle: saline",90 % of control and 91 % of control
same,T/C,"dose: 4.0 mg/kg/injection, schedule: Q04DX003 (ip), vehicle: saline",154 % of control
same,T/C,"dose: 8.0 mg/kg/injection, schedule: Q04DX003 (ip), vehicle: saline",113 % of control
CN(NC(=O)c1ccccc1)C(=O)c1ccccc1,T/C,"dose: 12.5 mg/kg/injection, schedule: Q04DX003 (ip), vehicle: Klucel (hydroxypropylcellulose) (HPC)",106 % of control
same,T/C,[1],104 % of control
same,T/C,[2],103 % of control
same,T/C,[5],108 % of control
same,T/C,"dose: 130.0 mg/kg/injection, schedule: Q04DX003 (ip), vehicle: Klucel (hydroxypropylcellulose) (HPC)",100 % of control
same,T/C,[6],103 % of control
same,T/C,"dose: 300.0 mg/kg/injection, schedule: Q04DX003 (ip), vehicle: Klucel (hydroxypropylcellulose) (HPC)",113 % of control
COc1ccc2c(c1C)CCC1(CO)C(C(C)=O)=CCC21 (centres undefined),T/C,[14],105 % of control
same,T/C,[5],92 % of control
same,T/C,[15],110 % of control
same,T/C,[6],97 % of control
same,T/C,[16],100 % of control
same,T/C,[7],102 % of control
O=c1[nH]c2cnn(-c3ccccc3)c2c(=O)n1O,T/C,[8],97 % of control
same,T/C,[9],97 % of control
same,T/C,[10],97 % of control
same,T/C,[11],105 % of control
NC(=O)c1ccccc1OC(=O)Nc1ccc(F)c([N+](=O)[O-])c1,T/C,[14],97 % of control
same,T/C,[15],104 % of control
same,T/C,[16],101 % of control
CC1(C)OC2C(N)OC(CO)C2O1 (centres undefined),T/C,"dose: 100.0 mg/kg/injection, schedule: Q04DX003 (ip), vehicle: saline",95 % of control
same,T/C,"dose: 200.0 mg/kg/injection, schedule: Q04DX003 (ip), vehicle: saline",110 % of control
same,T/C,"dose: 400.0 mg/kg/injection, schedule: Q04DX003 (ip), vehicle: saline",104 % of control
